Results published in patent US9980943B2, “Methods of treating muscular dystrophy” (BOARD OF REGENTS OF THE NEVADA SYSTEM OF HIGHER EDUCATION, …, priority 2013, dated 2018).

Columns and labels:
[1] = tested on: α7 integrin (LacZ reporter in α7+/LacZ myotubes); assay: Myotube α7 integrin FDG assay (Burkin assay in myotubes, 96-well); assay type: cell-based, mouse; conditions: for Burkin Assay in Myotubes, value relative to DMSO: SU9516 analogs, 96-well, N=3-6
[2] = tested on: β-galactosidase in CMV-LacZ C2C12 myotubes; assay: CMV-LacZ secondary screen in C2C12 myotubes (β-Gal stabilizing assay); assay type: cell-based, mouse; conditions: for CMV-LACZ in Myotubes, value relative to DMSO: SU9516 analogs, C2C12 CMV-LacZ, N=2
Summary of the method: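 CMV-LacZ C2C12 line (clonal, FDG-screened); myoblasts/myotubes dosed 0.5–40 μM (0.5, 1, 5, 10, 20, 40 μM); n=2 per point; β-gal stabilization read-out.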

[3] = tested on: β-galactosidase in CMV-LacZ C2C12 myoblasts; assay: CMV-LacZ secondary screen in C2C12 myoblasts (β-Gal stabilizing assay); assay type: cell-based, mouse; conditions: for CMV-LACZ in Myoblasts, value relative to DMSO: SU9516 analogs, C2C12 CMV-LacZ, N=2
Summary of the method: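 Stable CMV-LacZ C2C12 clone; six-point curve 0.5–40 μM; duplicates.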

[4] = tested on: α7 integrin (LacZ reporter in α7βgal+/− myoblasts); assay: Myoblast α7+/LacZ integrin FDG assay (Burkin assay in myoblasts, 96-well); assay type: cell-based, mouse; conditions: SU9516 analogs, 96-well, N=3-6
[5] = tested on: α7 Integrin protein in C2C12 myotubes; assay: Western blot of α7 integrin protein in C2C12 myotubes; assay type: cell-based, mouse; conditions: 12 μM, 48 hours, α7B Integrin normalized to GAPDH
Description: Bands were quantified using Image J software and then graphed as α7 Integrin protein levels relative to GAPDH protein levels. * denotes a significant difference in relative protein levels with ** p<0.01.
C2C12 myotubes were treated for 48 hours with each hit compound, washed with PBS, then scraped and pelleted using standard procedures. Cell pellets were resuspended in RIPA buffer and protein concentration determined by BCA. Approximately 10 μg of protein was loaded per lane and separated on 8% SDS-PAGE gels and transferred to nitrocellulose using standard conditions. Blots were probed using α7A and α7B integrin specific rabbit polyclonal antibody as previously described and […].
Western blot analysis of the myotube protein extracts were then performed for α7B Integrin and normalized to GAPDH (FIGS. 8A and 8B).
Immunoblot analysis is used to assess the protein level expression in treated and control cells. C2C12 and human DMD myoblasts and myotubes are cultured in triplicate experiments and treated with lead compounds or DMSO as described above. Cells are harvested using a cell scraper and extracted proteins. Extracted protein is quantified by a Bradford assay. […] A LiCoR Odyssey scanner and software is used to quantify band intensities and statistical significance (p<0.05) is determined using ANOVA.

[6] = tested on: α7 integrin (LacZ reporter in α7LacZ+/− myoblasts); assay: qHTS of the LOPAC library and MLSMR (online screen, α7LacZ+/− myoblasts); conditions: LOPAC library
Description: A total of 250 α7LacZ^+/− myoblasts at passage 13 were dispensed using a multidrop (Thermo) into black low base tissue culture treated microclear aurora plates in 6 μl media containing DMEM without phenol, 5% FBS, 1× GluMax and 1× Penicillin/Streptomycin. […] Compounds were then dispensed using a Kalypsys pintool to deliver 23 nl/well compounds in DMSO (diluted into 6 μl resulting in a 1:260 dilution of compound). […] After incubation with compound, 5 μl of the media was aspirated using the Kalypsys washer/dispenser and 3 μl of the Mammalian Protein Extraction Reagent (MPER) lysis buffer (Thermo Fisher) was added. […] The plates were then incubated for 10 minutes at room temperature.
The assay was adapted for a high-throughput screen with the fully automated Kalypsys robotic system using 1536 well plates at NCGC.

With Cc1[nH]c(/C=C2\C(=O)Nc3ccc(S(=O)(=O)Cc4c(Cl)cccc4Cl)cc32)c(C)c1C(=O)C1CCCN1CN1CCCC1 (centres unmarked) [NCGC00242500-01] the “Burkin Assay in Myotubes, value relative to DMSO” value ([1]; 0.5 uM) was 0.9974, the “Burkin Assay in Myotubes, value relative to DMSO” value ([1]; 1 uM) was 0.9391 and the “Burkin Assay in Myotubes, value relative to DMSO” value ([1]; 5 uM) was 0.9422. For the same compound, the “Burkin Assay in Myotubes, value relative to DMSO” value ([1]; 10 uM) was 0.7534, the “Burkin Assay in Myotubes, value relative to DMSO” value ([1]; 20 uM) was 0.652 and the “Burkin Assay in Myotubes, value relative to DMSO” value ([1]; 40 uM) was 0.2132. For the same compound, the “CMV-LACZ in Myotubes, value relative to DMSO” value ([2]; 0.5 uM) was 1.2482, the “CMV-LACZ in Myotubes, value relative to DMSO” value ([2]; 1 uM) was 1.9682 and the “CMV-LACZ in Myotubes, value relative to DMSO” value ([2]; 5 uM) was 2.2432. For the same compound, the “CMV-LACZ in Myotubes, value relative to DMSO” value ([2]; 10 uM) was 3.3039, the “CMV-LACZ in Myotubes, value relative to DMSO” value ([2]; 20 uM) was 5.2430 and the “CMV-LACZ in Myotubes, value relative to DMSO” value ([2]; 40 uM) was 7.0800. For the same compound, the “CMV-LACZ in Myoblasts, value relative to DMSO” value ([3]; 0.5 uM) was 1.1021, the “CMV-LACZ in Myoblasts, value relative to DMSO” value ([3]; 1 uM) was 1.1446 and the “CMV-LACZ in Myoblasts, value relative to DMSO” value ([3]; 5 uM) was 1.6977. The “CMV-LACZ in Myoblasts, value relative to DMSO” value ([3]; 10 uM) was 2.4909, the “CMV-LACZ in Myoblasts, value relative to DMSO” value ([3]; 20 uM) was 0.3570 and the “CMV-LACZ in Myoblasts, value relative to DMSO” value ([3]; 40 uM) was 0.4237. The “Burkin Assay in Myoblasts, value relative to DMSO” value ([4]; 0.5 uM) was 1.052, the “Burkin Assay in Myoblasts, value relative to DMSO” value ([4]; 1 uM) was 1.076 and the “Burkin Assay in Myoblasts, value relative to DMSO” value ([4]; 5 uM) was 0.8704. The “Burkin Assay in Myoblasts, value relative to DMSO” value ([4]; 10 uM) was 0.5879, the “Burkin Assay in Myoblasts, value relative to DMSO” value ([4]; 20 uM) was 0.01841 and the “Burkin Assay in Myoblasts, value relative to DMSO” value ([4]; 40 uM) was 0.01945.
With COc1ccc2c(c1)/C(=C/c1cnc[nH]1)C(=O)N2 [SU9516, 3-[1-(3H-imidazol-4-yl)-meth-(Z)-ylidene]-5-methoxy-1,3-dihydro-indol-2-one, reference compound] the EC50 ([1]; Mus musculus, Myotube, read-out: EC50 α7+/LacZ MT) was 6 µM, the “activity in C2C12 CMV-LACZ myotubes” value [2] was “showed activity” and the “activity in C2C12 CMV-LACZ myoblasts” value [3] was “showed activity”. The “increase in α7 Integrin protein levels compared to DMSO treated controls” value [5] was “approximately 1.6 fold” and the “outcome of preliminary LOPAC library screen” value [6] was “hit”.
